# Experimental data from PubChem BioAssay AID220 (DTP/NCI, 2004).
# “And” between values parts separate entries of the source, which are not always exact repeats. Equal values may be shown once. Results filed as inconclusive are left out.
# Test system: CD8F1 mice, subcutaneous mammary adenocarcinoma, T/C%
# Assay: NCI In Vivo Anticancer Drug Screen. Data for tumor model Mammary Adenocarcinoma CD8F1 (subcutaneous) in CD8F1
# Conditions: higher = larger tumour
# Description: The antitumor activity of compounds was measured in mice bearing transplantable tumors. Survival or tumor size were measured and the results are expressed as the measurement made in the treated group (T) divided by the measurement made in the vehicle treated control group (C). The tumor model used in this assay is Mammary Adenocarcinoma CD8F1 (subcutaneous) in CD8F1
# [1] = endpoint: median tumor weight change, dose: 62.5 mg/kg/injection, schedule: Q01DX001 (ip), vehicle: Klucel (hydroxypropylcellulose) (HPC)
# [2] = endpoint: median tumor weight change, dose: 125.0 mg/kg/injection, schedule: Q01DX001 (ip), vehicle: Klucel (hydroxypropylcellulose) (HPC)
# [3] = endpoint: median tumor weight (est.), dose: 3.12 mg/kg/injection, schedule: Q07DX005 (ip), vehicle: saline with Tween-80
# [4] = endpoint: median tumor weight (est.), dose: 6.25 mg/kg/injection, schedule: Q07DX005 (ip), vehicle: saline with Tween-80
# [5] = endpoint: median tumor weight (est.), dose: 12.5 mg/kg/injection, schedule: Q07DX005 (ip), vehicle: saline with Tween-80
# [6] = endpoint: median tumor weight (est.), dose: 50.0 mg/kg/injection, schedule: Q07DX005 (ip), vehicle: saline with Tween-80
# [7] = endpoint: median tumor weight change, dose: 1000.0 mg/kg/injection, schedule: Q01DX001 (ip), vehicle: saline
# [8] = endpoint: median tumor weight change, dose: 2000.0 mg/kg/injection, schedule: Q01DX001 (ip), vehicle: saline
# [9] = endpoint: median tumor weight (est.), dose: 12.5 mg/kg/injection, schedule: Q07DX005 (ip), vehicle: saline
compound,measurement,setting,value
COc1nc(C(Cl)(Cl)Cl)c(Cl)c(OC)c1Cl,T/C,"endpoint: median tumor weight change, dose: 60.0 mg/kg/injection, schedule: Q01DX005 (ip), vehicle: Klucel (hydroxypropylcellulose) (HPC)",32 % of control
same,T/C,[1],174 % of control
same,T/C,[2],81 % of control and 95 % of control
same,T/C,"endpoint: median tumor weight change, dose: 200.0 mg/kg/injection, schedule: Q01DX005 (ip), vehicle: Klucel (hydroxypropylcellulose) (HPC)",-15 % of control
Cc1cc2c(C(C)C)c(O)c(O)c(C=O)c2c(O)c1-c1c(C)cc2c(C(C)C)c(O)c(O)c(C=O)c2c1O,T/C,"endpoint: median tumor weight change, dose: 31.25 mg/kg/injection, schedule: Q01DX001 (ip), vehicle: saline with Tween-80",65 % of control
C/C=C(\C)C(=O)OC1C(C)C2(O)C(C=C(CO)CC3(O)C(=O)C(C)=CC32)C2C(C)(C)C12OC(=O)CCCCCCCCC (stereo unspecified),T/C,"endpoint: median tumor weight (est.), dose: 0.06 mg/kg/injection, schedule: Q07DX005 (ip), vehicle: saline + alcohol",91 % of control
same,T/C,"endpoint: median tumor weight (est.), dose: 0.12 mg/kg/injection, schedule: Q07DX005 (ip), vehicle: saline + alcohol",76 % of control
same,T/C,"endpoint: median tumor weight (est.), dose: 0.25 mg/kg/injection, schedule: Q07DX005 (ip), vehicle: saline + alcohol",92 % of control
O=c1cc(CCl)[nH]nc1CCl,T/C,[3],86 % of control and 88 % of control
same,T/C,[4],96 % of control and 103 % of control
same,T/C,[5],92 % of control and 106 % of control
same,T/C,[6],55 % of control
CCN(C)N=Nc1ccc(C(N)=O)cc1,T/C,"endpoint: median tumor weight change, dose: 50.0 mg/kg/injection, schedule: Q01DX001 (ip), vehicle: Klucel (hydroxypropylcellulose) (HPC)",51 % of control
same,T/C,[1],92 % of control
same,T/C,"endpoint: median tumor weight change, dose: 100.0 mg/kg/injection, schedule: Q01DX001 (ip), vehicle: Klucel (hydroxypropylcellulose) (HPC)",72 % of control
same,T/C,[2],91 % of control
same,T/C,"endpoint: median tumor weight change, dose: 200.0 mg/kg/injection, schedule: Q01DX001 (ip), vehicle: Klucel (hydroxypropylcellulose) (HPC)",44 % of control
same,T/C,"endpoint: median tumor weight change, dose: 250.0 mg/kg/injection, schedule: Q01DX001 (ip), vehicle: Klucel (hydroxypropylcellulose) (HPC)",24 % of control
same,T/C,"endpoint: median tumor weight change, dose: 400.0 mg/kg/injection, schedule: Q01DX001 (ip), vehicle: Klucel (hydroxypropylcellulose) (HPC)",21 % of control
OC1OC2COC(c3ccccc3)OC2C(O)C1O (stereo unspecified),T/C,"endpoint: median tumor weight change, dose: 50.0 mg/kg/injection, schedule: Q01DX001 (ip), vehicle: water",105 % of control
same,T/C,"endpoint: median tumor weight change, dose: 100.0 mg/kg/injection, schedule: Q01DX001 (ip), vehicle: water",80 % of control
same,T/C,"endpoint: median tumor weight change, dose: 200.0 mg/kg/injection, schedule: Q01DX001 (ip), vehicle: water",101 % of control
same,T/C,"endpoint: median tumor weight change, dose: 400.0 mg/kg/injection, schedule: Q01DX001 (ip), vehicle: water",59 % of control
same,T/C,"endpoint: median tumor weight change, dose: 800.0 mg/kg/injection, schedule: Q01DX001 (ip), vehicle: water",62 % of control
same,T/C,"endpoint: median tumor weight change, dose: 1600.0 mg/kg/injection, schedule: Q01DX001 (ip), vehicle: water",90 % of control
O=C1N[C@@H]2C(=C[C@H](O)[C@@H](O)[C@H]2O)c2cc3c(c(O)c21)OCO3,T/C,"endpoint: median tumor weight change, dose: 3.12 mg/kg/injection, schedule: Q01DX001 (ip), vehicle: saline with Tween-80",75 % of control
same,T/C,"endpoint: median tumor weight change, dose: 6.25 mg/kg/injection, schedule: Q01DX001 (ip), vehicle: saline with Tween-80",90 % of control
same,T/C,"endpoint: median tumor weight change, dose: 12.5 mg/kg/injection, schedule: Q01DX001 (ip), vehicle: saline with Tween-80",60 % of control
O=C1OC(=O)[C@H]2[C@@H]1[C@H]1C=C[C@@H]2OC1=O,T/C,"endpoint: median tumor weight change, dose: 125.0 mg/kg/injection, schedule: Q01DX001 (ip), vehicle: saline",154 % of control
same,T/C,"endpoint: median tumor weight change, dose: 250.0 mg/kg/injection, schedule: Q01DX001 (ip), vehicle: saline",98 % of control
same,T/C,"endpoint: median tumor weight change, dose: 500.0 mg/kg/injection, schedule: Q01DX001 (ip), vehicle: saline",91 % of control
same,T/C,[7],95 % of control
same,T/C,[8],40 % of control
CCCCCCCCCCCCCCCCP(=O)(OCCOCCCCCC)OCCOCCCCCC,T/C,"endpoint: median tumor weight (est.), dose: 3.12 mg/kg/injection, schedule: Q07DX005 (ip), vehicle: saline",118 % of control
same,T/C,"endpoint: median tumor weight (est.), dose: 6.25 mg/kg/injection, schedule: Q07DX005 (ip), vehicle: saline",156 % of control
same,T/C,[9],85 % of control
same,T/C,"endpoint: median tumor weight (est.), dose: 25.0 mg/kg/injection, schedule: Q07DX005 (ip), vehicle: saline",72 % of control
same,T/C,"endpoint: median tumor weight (est.), dose: 50.0 mg/kg/injection, schedule: Q07DX005 (ip), vehicle: saline",94 % of control
same,T/C,"endpoint: median tumor weight (est.), dose: 100.0 mg/kg/injection, schedule: Q07DX005 (ip), vehicle: saline",55 % of control
CC(=O)C1=C(O)C2(O)C(=O)c3c(c(C)c4ccc(C)c(O)c4c3O)CC2C(N)C1=O (stereo unspecified),T/C,"endpoint: median tumor weight change, dose: 37.5 mg/kg/injection, schedule: Q01DX001 (ip), vehicle: saline + alcohol",72 % of control
same,T/C,"endpoint: median tumor weight change, dose: 38.0 mg/kg/injection, schedule: Q01DX001 (ip), vehicle: saline + alcohol",100 % of control
same,T/C,"endpoint: median tumor weight change, dose: 75.0 mg/kg/injection, schedule: Q01DX001 (ip), vehicle: saline + alcohol",46 % of control and 60 % of control
same,T/C,"endpoint: median tumor weight change, dose: 150.0 mg/kg/injection, schedule: Q01DX001 (ip), vehicle: saline + alcohol",49 % of control
O=c1ncccn1[C@@H]1O[C@H](CO)[C@H](O)C1O (stereo partly specified),T/C,[7],78 % of control and 89 % of control
same,T/C,[8],95 % of control and 103 % of control
c1ccc([C@H]2CN3CCSC3=N2)cc1,T/C,"endpoint: mean tumor weight, dose: 12.5 mg/kg/injection, schedule: Q07DX005 (ip), vehicle: saline",107 % of control
same,T/C,"endpoint: mean tumor weight, dose: 25.0 mg/kg/injection, schedule: Q07DX005 (ip), vehicle: saline",105 % of control
same,T/C,[9],92 % of control
CSc1ccc2c(c1)C(N1CCN(C)CC1)Cc1ccccc1S2 (stereo unspecified),T/C,[3],104 % of control
same,T/C,[4],95 % of control
same,T/C,[5],63 % of control
same,T/C,"endpoint: median tumor weight (est.), dose: 25.0 mg/kg/injection, schedule: Q07DX005 (ip), vehicle: saline with Tween-80",53 % of control
same,T/C,[6],104 % of control
C[C@]12CC[C@H](O)CC1=CC[C@@H]1[C@@H]2CC[C@]2(C)C(=O)CC[C@@H]12,T/C,"endpoint: median tumor weight change, dose: 62.5 mg/kg/injection, schedule: Q01DX001 (ip), vehicle: saline with Tween-80",115 % of control
same,T/C,"endpoint: median tumor weight change, dose: 250.0 mg/kg/injection, schedule: Q01DX001 (ip), vehicle: saline with Tween-80",104 % of control
same,T/C,"endpoint: median tumor weight change, dose: 500.0 mg/kg/injection, schedule: Q01DX001 (ip), vehicle: saline with Tween-80",90 % of control
same,T/C,"endpoint: median tumor weight change, dose: 1000.0 mg/kg/injection, schedule: Q01DX001 (ip), vehicle: saline with Tween-80",70 % of control
C=C1C(=O)OCC2C(C(=O)O)=CC3C(C)C(C)=CC123 (stereo unspecified),T/C,"endpoint: median tumor weight (est.), dose: 10.0 mg/kg/injection, schedule: Q07DX005 (ip), vehicle: Klucel (hydroxypropylcellulose) (HPC)",101 % of control
same,T/C,"endpoint: median tumor weight (est.), dose: 20.0 mg/kg/injection, schedule: Q07DX005 (ip), vehicle: Klucel (hydroxypropylcellulose) (HPC)",95 % of control and 105 % of control
same,T/C,"endpoint: median tumor weight (est.), dose: 40.0 mg/kg/injection, schedule: Q07DX005 (ip), vehicle: Klucel (hydroxypropylcellulose) (HPC)",100 % of control and 114 % of control
same,T/C,"endpoint: median tumor weight (est.), dose: 80.0 mg/kg/injection, schedule: Q07DX005 (ip), vehicle: Klucel (hydroxypropylcellulose) (HPC)",75 % of control and 85 % of control
same,T/C,"endpoint: median tumor weight (est.), dose: 160.0 mg/kg/injection, schedule: Q07DX005 (ip), vehicle: Klucel (hydroxypropylcellulose) (HPC)",101 % of control
Cc1ccccc1-[n+]1noc(N)n1,T/C,"endpoint: median tumor weight change, dose: 31.25 mg/kg/injection, schedule: Q01DX001 (ip), vehicle: water",72 % of control
same,T/C,"endpoint: median tumor weight change, dose: 62.5 mg/kg/injection, schedule: Q01DX001 (ip), vehicle: water",87 % of control
same,T/C,"endpoint: median tumor weight change, dose: 125.0 mg/kg/injection, schedule: Q01DX001 (ip), vehicle: water",29 % of control
Cc1c(N)nc(C(CC(N)=O)NCC(N)C(N)=O)nc1C(=O)NC(C(=O)NC(C)C(O)C(C)C(=O)NC(C(=O)NCCc1nc(-c2nc(C(=O)NCCCNCCCc3ccccn3)cs2)cs1)C(C)O)C(OC1OC(CO)C(O)C(O)C1OC1OC(CO)C(O)C(OC(N)=O)C1O)c1cnc[nH]1 (stereo unspecified),T/C,"endpoint: median tumor weight (est.), dose: 0.37 mg/kg/injection, schedule: Q07DX005 (ip), vehicle: water",45 % of control
same,T/C,"endpoint: median tumor weight (est.), dose: 0.75 mg/kg/injection, schedule: Q07DX005 (ip), vehicle: water",76 % of control
same,T/C,"endpoint: median tumor weight (est.), dose: 1.5 mg/kg/injection, schedule: Q07DX005 (ip), vehicle: water",104 % of control
same,T/C,"endpoint: median tumor weight (est.), dose: 3.2 mg/kg/injection, schedule: Q07DX005 (ip), vehicle: water",101 % of control
same,T/C,"endpoint: median tumor weight (est.), dose: 3.5 mg/kg/injection, schedule: Q07DX005 (ip), vehicle: water",166 % of control
same,T/C,"endpoint: median tumor weight (est.), dose: 6.0 mg/kg/injection, schedule: Q07DX005 (ip), vehicle: water",100 % of control
same,T/C,"endpoint: median tumor weight (est.), dose: 6.4 mg/kg/injection, schedule: Q07DX005 (ip), vehicle: water",52 % of control
same,T/C,"endpoint: median tumor weight (est.), dose: 7.0 mg/kg/injection, schedule: Q07DX005 (ip), vehicle: water",104 % of control
same,T/C,"endpoint: median tumor weight (est.), dose: 12.8 mg/kg/injection, schedule: Q07DX005 (ip), vehicle: water",12 % of control
same,T/C,"endpoint: median tumor weight (est.), dose: 14.0 mg/kg/injection, schedule: Q07DX005 (ip), vehicle: water",53 % of control
same,T/C,"endpoint: median tumor weight (est.), dose: 28.0 mg/kg/injection, schedule: Q07DX005 (ip), vehicle: water",3 % of control
